The source of these data is patent US8642510B2, “Inhibitors for brassinosteroid signalling” (GMI-Gregor Mendel-Institut fuer Molekulare Pflanzenbiologie …, priority 2008, dated 2014).

“Also recorded” adds a separate entry of the source.

A short description of this series: Cell-permeability assay (uptake by seedlings). In kind it is in vivo, A. thaliana. The note with it: 50 μM in medium. The protocol: FIG. 6: Methylation increases tissue-permeability. A. thaliana seedlings were incubated in 50 μM solutions of compounds 10 and 15 in ½MS medium. Samples were taken after the indicated time and the in situ levels of compound 15 analysed by HPLC. The solid line represents the results for plants incubated with compound 10 and the dashed line the results for compound 15. The means and standard deviations were calculated from 3 independent assays.
Two-week-old A. thaliana Co10 seedlings were transferred to ½MS medium containing 50 μM inhibitor. Samples were removed after the indicated time points, rinsed with water, dried with filter paper and frozen in liquid nitrogen. For analysis the plant material was ground to a fine powder in a mortar pre-cooled with liquid nitrogen. […]
The cell-permeability of a substance is an important characteristic influencing its in vivo potency. The uptake of compounds 10 and 15 by plants was determined by treatment of seedlings with solutions of these compounds and subsequent quantification of the internalised inhibitor concentrations (FIG. 6). Since compound 10 is rapidly converted to 15, only the in situ concentration of 15 was measured. […] While 50 μM were present in the medium, in situ concentrations of about 90 μM could be measured in the case of compound 15 and up to 190 μM in the case of application of compound 10.

With `COC(=O)CCC(=O)Nc1ccc(I)cn1` [Compound 10, 4-[(5-iodopyrid-2-yl)amino]-4-oxobutanoic acid methyl ester], the “Uptake rate relative to compound 15” value was “roughly double”. For the same compound, the “Tissue permeability / uptake” value (result in words) was “higher tissue permeability; also recorded: very rapid uptake”.
